In patent publication US20050049276A1, “Imidazopyridines and triazolopyridines” (WARNER-LAMBERT COMPANY, LLC, priority 2003, published 2005):
Counter-ions that a name gives are not always drawn. Like-named read-outs stand apart in the source and are kept apart here.

Assays:
[1] = test system: MEK (phosphorylation of MAP kinase (ERK) in murine colon 26 (C26) carcinoma cells); test: Cellular inhibition of ERK phosphorylation, pERK ELISA format (C26ELSA); assay type: cell-based; conditions: Mus musculus, 1 h, one hour treatment
Source text: Otherwise, percent inhibitions at measured concentrations are reported.

[2] = test system: MEK (phosphorylation of MAP kinase (ERK) in murine colon 26 (C26) carcinoma cells); conditions: read-out: C26CPA1 IC50, one hour treatment
Description: Since ERK1 and ERK2 represent the only known substrates for MEK1 and MEK2, the measurement of inhibition of ERK phosphorylation in cells provides direct read out of cellular MEK inhibition by the compounds of the invention. Detection of phosphorylation of ERK was carried out either by Western blot or ELISA format. […] Supernatants were then subjected to gel electrophoresis and hybridized to a primary antibody recognizing dually phosphorylated ERK1 and ERK2. To evaluate total MAPK levels, blots were subsequently ‘stripped’ and re-probed with a 1:1 mixture of polyclonal antibodies recognizing unphosphorylated ERK1 and ERK2. For pERK ELISA assay, pERK TiterZyme Enzyme immunometric Assay kits were acquired from Assay Designs, Inc (Ann Arbor, Mich.). Briefly, cells were harvested in lysis solution containing 50 mM β-glycerophosphate, 10 mM HEPES, pH7.4, 70 mM NaCl, 2 mM EDTA and 1% SDS and protein lysates were diluted 1:15 with supplied Assay buffer prior to the execution of the assay. The subsequent steps were carried out essentially as recommended by the manufacturer.

| melting point | SMILES | further results |
| --- | --- | --- |
| 132 to 134 °C | CCOC(=O)c1cn2ccnc2cc1Nc1ccc(I)cc1F [Example 1, 7-(2-Fluoro-4-iodo-phenylamino)-imidazo[1,2-a]pyridine-6-carboxylic acid ethyl ester] |  |
|  | NC(=O)c1cn2ccnc2cc1Nc1ccc(I)cc1F [Example 3, 7-(2-Fluoro-4-iodo-phenylamino)-imidazo[1.2-a]pyridine-6-carboxylic acid amide] | IC50 [1]: 1.9 nM |
|  | O=C(NCCO)C1=CN2CCN=C2C=C1Nc1ccc(I)cc1F [Example 4, 7-(2-Fluoro-4-iodo-phenylamino)-2,3-dihydro-imidazo[1.2-a]pyridine-6-carboxylic acid (2-hydroxy-ethyl)-amide; hydroiodide salt] | IC50 [2]: 177 nM |
| 201 to 204 °C | CCOC(=O)c1cn2c(C)nnc2cc1Nc1ccc(I)cc1F [Example 5, 7-(2-Fluoro-4-iodo-phenylamino)-3-methyl-[1,2,4]triazolo[4.3-a]pyridine-6-carboxylic acid ethyl ester] |  |
| 300 to 310 °C (dec.) | Cc1nnc2cc(Nc3ccc(I)cc3F)c(C(N)=O)cn12 [Example 6, 7-(2-Fluoro-4-iodo-phenylamino)-3-methyl-[1,2,4]triazolo[4,3-a]pyridine-6-carboxylic acid amide] |  |
